A short description of one data set: Water solubility test. The class given is physicochemical. To be noted: powdered, 20°±5° C., within 30 minutes, read-out: Amount (ml) of water required to dissolve 1 g of the subject compounds (converted). On the procedure:
The subject compounds (indicated by the example number), after being powdered, were placed in water and vigorously shaken at 20°±5° C. for 30 seconds a 5-minute intervals, and within 30 minutes, the amount of water required to dissolve 1 g of the compound (I) of the present invention therein was measured.

Data set [1] deals with spontaneously hypertensive rats. Put plainly: Hypotensive activity in male spontaneously hypertensive rats (oral). The class given is in vivo, rat. To be noted: systolic pressure at tail vein, oral 10 mg/kg.
Experimental: Hypotensive activity [Method] Male spontaneously hypertensive rats at the 12th to 16th week in age and presenting a systolic pressure of around 200 mmHg were used as experimental animals, and 3 to 8 animals were assigned to each group. The subject compound (indicated by the example number), in an aqueous solution or 5% gum arabic suspension, was orally administered in a dose of 10 mg/kg. At the 4th and 8th hours following the administration, the systolic pressure at tail vein of each rat was noninvasively measured by means of a sphygmomanometer (USM-105, Ueda Seisakusho, Japan). A group of rats administered the solvent alone was used as a control group.
Gum arabic or water was administered to rats of the control group.

≈ marks a conversion by molar mass, not a printed value. Counter-ions that a name gives are not always drawn.

On to `C=CCN1CCN(CC(C)(C)COC(=O)C2=C(C)NC(C)=C(C(=O)OC)C2c2cccc([N+](=O)[O-])c2)CC1.Cl.Cl` (centres unmarked) [Example 2, 3-(4-allyl-1-piperazinyl)-2,2-dimethylpropyl methyl 2,6-dimethyl-4-(m-nitrophenyl)-1,4-dihydropyridine-3,5-dicarboxylate dihydrochloride], for which the solubility at 0.5 h in “Water solubility test” is 500 mg/mL. For the same compound, in data set [1], the “Change in blood pressure, 4 hours after administration” value (shortened to “Change in blood pressure, 4 hours”) is on record as -81 mmHg and the “Change in blood pressure, 8 hours after administration” value (“Change in blood pressure, 8 hours” for short) is recorded as -104 mmHg.
As to `CCOC(=O)CN1CCN(CC(C)(C)COC(=O)C2=C(C)NC(C)=C(C(=O)OC)C2c2cccc([N+](=O)[O-])c2)CC1` (centres unmarked) [Example 25], in the data set “Water solubility test”, the solubility at 0.5 h is 500 mg/mL (≈ 873 mM).
Regarding `CNC(=O)CN1CCN(CC(C)(C)COC(=O)C2=C(C)NC(C)=C(C(=O)OC)C2c2cccc([N+](=O)[O-])c2)CC1` (centres unmarked) [Example 27], the solubility at 0.5 h in “Water solubility test” was 500 mg/mL (≈ 897 mM). In data set [1], the “Change in blood pressure, 4 hours” value is -83 mmHg and the “Change in blood pressure, 8 hours” value is reported as -60 mmHg.
In the same order, the values of `COC(=O)C1=C(C)NC(C)=C(C(=O)OCC(C)(C)CN2CCN(CCC#N)CC2)C1c1cccc([N+](=O)[O-])c1` (centres unmarked) [Example 14, 2,2-Dimethyl-3-[4-(2-cyanoethyl)-1-piperazinyl]propyl Methyl 1,4-Dihydro-2,6-dimethyl-4-(3-nitrophenyl)-3,5-pyridinedicarboxylateDihydrochloride] are 500 mg/mL, -43 mmHg and -88 mmHg.
For `COC(=O)C1=C(C)NC(C)=C(C(=O)OCC(C)(C)CN2CCN(CCO[N+](=O)[O-])CC2)C1c1cccc([N+](=O)[O-])c1` (centres unmarked) [Example 24], the solubility at 0.5 h in the data set “Water solubility test” is 500 mg/mL (≈ 869 mM). Besides, in data set [1], the “Change in blood pressure, 4 hours” value is given as -91 mmHg and the “Change in blood pressure, 8 hours” value is given as -69 mmHg.
Regarding `COC(=O)C1=C(C)NC(C)=C(C(=O)OCC(C)(C)CN2CCN(CCO)CC2)C1c1cccc([N+](=O)[O-])c1` (centres unmarked) [Example 15, 2,2-Dimethyl-3-[4-(2-hydroxyethyl)-1-piperazinyl]propyl Methyl 1,4-Dihydro-2,6-dimethyl-4-(3-nitrophenyl)-3,5-pyridinedicarboxylateDihydrochloride], the solubility at 0.5 h in the data set “Water solubility test” was 500 mg/mL. Besides, in data set [1], the “Change in blood pressure, 4 hours” value is on record as -52 mmHg and the “Change in blood pressure, 8 hours” value is given as -47 mmHg.
In the same order, the values of `COC(=O)C1=C(C)NC(C)=C(C(=O)OCC(C)(C)CN2CCN(CC(=O)N3CCCC3)CC2)C1c1cccc([N+](=O)[O-])c1` (centres unmarked) [Example 26] are 500 mg/mL (≈ 837 mM), -53 mmHg and -32 mmHg.
The corresponding values for `COC(=O)C1=C(C)NC(C)=C(C(=O)OCCN(C)Cc2ccccc2)C1c1cccc([N+](=O)[O-])c1` (centres unmarked) [Nicardipine, nicardipine, reference compound] are 6.25 mg/mL (≈ 13 mM), -29 mmHg and -22 mmHg.
In the case of `COC(=O)C1=C(C)NC(C)=C(C(=O)OCC(C)(C)CN2CCN(C(=O)c3ccccc3)CC2)C1c1cccc([N+](=O)[O-])c1.Cl` (centres unmarked) [Example 6, 2,2-Dimethyl-3-(4-benzoyl-1-piperazinyl)propyl Methyl 1,4-Dihydro-2,6-dimethyl-4-(3-nitrophenyl)-3,5-pyridinedicarboxylate Hydrochloride], in data set [1], the “Change in blood pressure, 4 hours” value is recorded as -64 mmHg and the “Change in blood pressure, 8 hours” value was -88 mmHg.
The corresponding values for `COC(=O)C1=C(C)NC(C)=C(C(=O)OCC(C)(C)CN2CCN(CC=Cc3ccccc3)CC2)C1c1cccc([N+](=O)[O-])c1.Cl.Cl` (centres unmarked) [Example 13, 2,2-Dimethyl-3-(4-cinnamyl-1-piperazinyl)propyl Methyl 1,4-Dihydro-2,6-dimethyl-4-(3-nitrophenyl)-3,5-pyridinedicarboxylate Dihydrochloride] are -69 mmHg and -77 mmHg.
Turning to `C#CCCCN1CCN(CC(C)(C)COC(=O)C2=C(C)NC(C)=C(C(=O)OC)C2c2cccc([N+](=O)[O-])c2)CC1.Cl.Cl` (centres unmarked) [Example 21, 2,2-Dimethyl-3-[4-(4-pentynyl)-1-piperazinyl]propyl Methyl 1,4-Dihydro-2,6-dimethyl-4-(3-nitrophenyl)-3,5-pyridinedicarboxylate Dihydrochloride], in “Water solubility test”, the solubility at 0.5 h was 500 mg/mL. Besides, in data set [1], the “Change in blood pressure, 4 hours” value is reported as -112 mmHg and the “Change in blood pressure, 8 hours” value is given as -98 mmHg.
In the same order, the values of `COC(=O)C1=C(C)NC(C)=C(C(=O)OCC(C)(C)CN2CCN(C(C)C(C)=O)CC2)C1c1cccc([N+](=O)[O-])c1` (centres unmarked) [Example 19] are 500 mg/mL (≈ 898 mM), -86 mmHg and -85 mmHg.
As to `COC(=O)C1=C(C)NC(C)=C(C(=O)OCC(C)(C)CN2CCN(C(=O)Cc3ccccc3)CC2)C1c1cccc([N+](=O)[O-])c1` (centres unmarked) [Example 5], in data set [1], the “Change in blood pressure, 4 hours” value is -90 mmHg and the “Change in blood pressure, 8 hours” value is -87 mmHg.
Regarding `COC(=O)C1=C(C)NC(C)=C(C(=O)OCC(C)(C)CN2CCN(CC#N)CC2)C1c1cccc([N+](=O)[O-])c1.Cl.Cl` (centres unmarked) [Example 23, 3-(4-Cyanomethyl-1-piperazinyl)-2,2-dimethylpropyl methyl 2,6-dimethyl-4-(m-nitrophenyl)-1,4-dihydropyridine-3,5-dicarboxylate dihydrochloride], the solubility at 0.5 h in “Water solubility test” is 500 mg/mL. Further, in data set [1], the “Change in blood pressure, 4 hours” value is -104 mmHg and the “Change in blood pressure, 8 hours” value is -82 mmHg.
In the same order, the values of `C=C(C)CN1CCN(CC(C)(C)COC(=O)C2=C(C)NC(C)=C(C(=O)OC)C2c2cccc([N+](=O)[O-])c2)CC1` (centres unmarked) [Example 17] are 312 mg/mL (≈ 578 mM), -112 mmHg and -107 mmHg.
Turning to `COC(=O)C1=C(C)NC(C)=C(C(=O)OCC(C)(C)CN2CCN(C(C)=O)CC2)C1c1cccc([N+](=O)[O-])c1` (centres unmarked) [Example 8], in data set [1], the “Change in blood pressure, 4 hours” value is -56 mmHg and the “Change in blood pressure, 8 hours” value is reported as -90 mmHg.
For the compound `COC(=O)C1=C(C)NC(C)=C(C(=O)OCC(C)(C)CN2CCN(C(=O)C=Cc3ccccc3)CC2)C1c1cccc([N+](=O)[O-])c1` (centres unmarked) [Example 7], in data set [1], the “Change in blood pressure, 4 hours” value is given as -76 mmHg and the “Change in blood pressure, 8 hours” value is reported as -84 mmHg.
As to `COC(=O)C1=C(C)NC(C)=C(C(=O)OCC(C)(C)CN2CCN(CCN3CCCCC3)CC2)C1c1cccc([N+](=O)[O-])c1` (centres unmarked) [Example 16], the solubility at 0.5 h in the data set “Water solubility test” was 500 mg/mL (≈ 836 mM). Besides, in data set [1], the “Change in blood pressure, 4 hours” value is recorded as -34 mmHg and the “Change in blood pressure, 8 hours” value is reported as -52 mmHg.
In the same order, the values of `CC=CCN1CCN(CC(C)(C)COC(=O)C2=C(C)NC(C)=C(C(=O)OC)C2c2cccc([N+](=O)[O-])c2)CC1.Cl.Cl` (centres unmarked) [Example 20, 2,2-Dimethyl-3-[4-(2-butenyl)-1-piperazinyl]propyl Methyl 1,4-Dihydro-2,6-dimethyl-4-(3-nitrophenyl)-3,5-pyridinedicarboxylate Dihydrochloride] are 625 mg/mL, -84 mmHg and -82 mmHg.
In the same order, the values of `C#CCN1CCN(CC(C)(C)COC(=O)C2=C(C)NC(C)=C(C(=O)OC)C2c2cccc([N+](=O)[O-])c2)CC1` (centres unmarked) [Example 12] are 500 mg/mL (≈ 953 mM), -70 mmHg and -102 mmHg.

The values above are taken from patent US4937242A, “1,4-dihydropyridine derivatives and pharmaceutical composition thereof” (Kyoto Pharmaceutical Industries, Ltd., priority 1987, dated 1990).
